Here are results for one compound from patent publication US6288110A, “Pharmaceutical compositions comprising disulfiram” (Yeda Research and Development Co Ltd., priority 1998, dated 2001).

The subject of data set [1] is fibroblasts. Nature of the data set: Induction of apoptosis, fibroblasts. The format is cell-based.
Data set [2] concerns capillary endothelial (BCE) cells. As to the kind of experiment: TUNEL assay for apoptosis, BCE cells. It counts as cell-based, bovine. To be noted: 1 μM, 6 hours. Here is the method:
Cells were cultured on microscope slides for 48 hours in presence of growth media as described above, until reaching 40-50% confluency. Disulfiram was then added to the cells for 6 hours or for 20 hours in the case of BALB/MK keratinocytes, fixed with 4% paraformaldehyde and washed three times with PBS. Apoptosis was analyzed by the in situ TUNEL staining carried out as described (Wride, 1994). Briefly, microscope slides were incubated for 15 min in 2×SSC buffer at 60° C., washed in DDW and incubated with 20 μg/ml proteinase K (Boehringer Mannheim) for 15 min at room temperature. After a wash with DDW, endogenous peroxidases were inactivated by incubating the slides with 2% H2 O2 in PBST (PBS with 0.05% Tween 20) for 10 min at room temperature. Slides were then incubated in TdT buffer (Boehringer Mannheim) for 5 min at room temperature, and a reaction mixture containing 5×TdT buffer and 1 μl biotin-21-dUTP (Clontech, 1 mM stock) and 8 units of the TdT enzyme (Boehringer Mannheim) in total volume of 50 μl was subsequently added. The reactions were carried out at 37° C. for 1.5 hr in a humid chamber. The slides were washed in 2×SSC, DDW and finally with PBS and covered with 10% skim milk in PBST for 15 min. […]

For data set [3] the following is noted: cited from earlier work.
Data set [4] deals with C6 rat glioma tumor. As to the kind of experiment: Growth of C6 glioma tumors in nude mice. It counts as in vivo, CD1 nude male mice; C6 rat glioma cells. The conditions noted are these: 30 days; for Tumor weight / % inhibition (tumor growth): per os 3 times per week; for Tumor weight: n=8, mean ± SEM, control 1.37 ± 0.21. Here is the method: C6 rat glioma cells (10^6) were injected subcutaneously into the back of the neck of CD1 nude male mice. After 3 days, 1 ml of aqueous solutions with or without 0.1-0.5 mM disulfiram (25-120 μg) was introduced per os to the mice using a feeding needle. Mice were orally fed three times per week. Tumors were removed 30 days following C6 cells injection, weighed, fixed in buffered formalin and histological sections were prepared. Each experimental group included 8 animals, and experiments were repeated twice.
Tumors from mice fed systemically 3 times a week with disulfiram were weighed 30 days following administration of C6 rat glioma cells to CD1 nude mice. […] Experiments were repeated twice (n=8).

For data set [5], the system named is all cell types examined. Nature of the data set: DNA synthesis, all cell types examined, higher concentrations. The format is cell-based. The conditions noted are these: >10 μM, all cell types examined (not shown). The protocol:
C6 rat glioma cells were plated in 96-well plates (Nunc, Denmark) (5000 cells per well) in DMEM with 5% FCS. After 6 hours the cells were rinsed and incubated for 48 hours in serum free medium. 5% FCS or growth factors were then added to the cells for 24 hours (triplicates). ^3 H-methyl-thymidine (5μCi/ml) (Rotem Ind. Ltd., Israel) was added to the cells for the last 14 hours. The cells were rinsed with 100 μl methanol for 10 minutes, followed by 200 μl 5% trichloroacetic acid, and then rinsed and lysed with 150 μl 0.3M NaOH. Radioactive thymidine incorporated into the DNA was determined for 1 min with 3 ml scintillation liquid (ULTIMA GOLD Packard) in a β-counter. DNA synthesis assays were performed in triplicates.
Bovine capillary endothelial cells (BCE) and bovine aortic BSMC were plated in 24-well plates (6000 cells per well) in 500 μl DMEM medium supplemented with 10% Colorado calf serum (CCS) (GIBCO, USA) and GPS. After 24 hours, medium was changed to starvation medium (2% CCS, 0.5% BSA, GPS) for 24 hours. ^3 H-methyl-thymidine (5 μCi/ml) was added for the last 6 hours. DNA synthesis assays were performed as described above, in triplicates. […]
Disulfiram was prepared in 0.1 mM stock solutions in DMSO. […] Inhibition was calculated as percentage of DNA synthesis of control.

In data set [6] the test system is aldolases. To be noted: cited from earlier work.
Data set [7] relates to cisplatin nephrotoxicity. The conditions noted are these: humans; cited from earlier work.

“Also recorded” adds a separate entry of the source.

Take `CCN(CC)C(=S)SSC(=S)N(CC)CC` [disulfiram, Bis(diethylthiocarbamoyl) disulfide]: in data set [1], the induction of apoptosis result is recorded as “fails to induce apoptosis”. Also, in data set [2], the “apoptosis by TUNEL method” value is listed as “labeled; also recorded: induced into apoptosis”. Besides, the solubility in water result in data set [3] is recorded as “soluble in water”. The “solubility in methanol, acetone or chloroform” value in data set [3] (hydrophobic solutions) is on record as “solubilizes better”. The Tumor weight in data set [4] (25 μg, p = 0.003) was 0.59 ± 0.08 g; in data set [4] (120 μg, p < 0.05), 0.84 ± 0.18 g. Besides, the “% inhibition (tumor growth)” value is 57% in data set [4] (25 μg/mouse, p = 0.003) and 38% in data set [4] (120 μg/mouse, p < 0.05). Further, the “tumor size compared with water-fed control (in words)” value in data set [4] (fed 3 times a week, n=8) is “significantly smaller”. Moreover, the “inhibition at higher concentrations” value in data set [5] is “became less inhibitory”. The inhibition of aldolases result in data set [6] is given as “inhibit”. Also, the “protection against cisplatin nephrotoxicity” value in data set [7] is reported as “did not show any protection”.
